According to ChEMBL document CHEMBL1201862, “PubChem BioAssay data set” (2004):
Active and inactive are the calls of the source.

Key:
[1] = target: T1, Calpain-2 catalytic subunit (Sus scrofa, UniProt P43367); experiment: m-calpain protease blockers, concentration series – biochemical, fluorogenic peptide substrate, dose response (AID 1420); type: functional
T1 sequence (P43367 whole entry): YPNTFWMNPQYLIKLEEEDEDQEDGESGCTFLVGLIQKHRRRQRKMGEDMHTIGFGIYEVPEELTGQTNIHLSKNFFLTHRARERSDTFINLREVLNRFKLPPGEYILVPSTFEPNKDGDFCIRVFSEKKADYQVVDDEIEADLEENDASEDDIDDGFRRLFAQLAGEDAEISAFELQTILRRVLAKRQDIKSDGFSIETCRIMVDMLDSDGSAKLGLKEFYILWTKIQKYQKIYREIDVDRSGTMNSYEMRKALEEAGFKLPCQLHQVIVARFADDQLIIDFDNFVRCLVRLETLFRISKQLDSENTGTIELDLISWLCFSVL

INS1 = experiment: INS-1E survival protection against cytokine death – cell-based, luminescence, retest, dose response (AID 449756); type: functional; settings: Rattus norvegicus;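 note: cell death triggered by IL-1 beta plus TNF-alpha plus IFN-gamma mixture; protective hits raise ATP signal compared with cytokine alone wells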
BJ [2] = experiment: BJ-TERT fibroblast viability loss – cell-based, RAS-independent, luminescence, dose response (AID 1933); type: functional; settings: Homo sapiens
BJ [3] = experiment: cells; type: functional, cell-based; settings: Homo sapiens
BJ [4] = experiment: BJ-TERT-LT-ST fibroblast viability loss – cell-based, RAS-independent, luminescence, dose response (AID 1935); type: functional; settings: Homo sapiens;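 note: BJ fibroblasts immortalized with TERT plus LT and ST oncogenes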
[5] = DRD fibroblast viability loss – cell-based, non-viral oncogenic, luminescence, dose response (AID 1934); type: functional; settings: Homo sapiens
[6] = target: T2, Rac GTPase-activating protein 1 (Homo sapiens, UniProt Q9H0H5); experiment: blockers of MgcRacGAP-driven Rac1 GTP hydrolysis – biochemical, ADP Hunter fluorescence, primary and confirmatory, confirmation (AID 624330); type: functional
T2 sequence (Q9H0H5 whole entry): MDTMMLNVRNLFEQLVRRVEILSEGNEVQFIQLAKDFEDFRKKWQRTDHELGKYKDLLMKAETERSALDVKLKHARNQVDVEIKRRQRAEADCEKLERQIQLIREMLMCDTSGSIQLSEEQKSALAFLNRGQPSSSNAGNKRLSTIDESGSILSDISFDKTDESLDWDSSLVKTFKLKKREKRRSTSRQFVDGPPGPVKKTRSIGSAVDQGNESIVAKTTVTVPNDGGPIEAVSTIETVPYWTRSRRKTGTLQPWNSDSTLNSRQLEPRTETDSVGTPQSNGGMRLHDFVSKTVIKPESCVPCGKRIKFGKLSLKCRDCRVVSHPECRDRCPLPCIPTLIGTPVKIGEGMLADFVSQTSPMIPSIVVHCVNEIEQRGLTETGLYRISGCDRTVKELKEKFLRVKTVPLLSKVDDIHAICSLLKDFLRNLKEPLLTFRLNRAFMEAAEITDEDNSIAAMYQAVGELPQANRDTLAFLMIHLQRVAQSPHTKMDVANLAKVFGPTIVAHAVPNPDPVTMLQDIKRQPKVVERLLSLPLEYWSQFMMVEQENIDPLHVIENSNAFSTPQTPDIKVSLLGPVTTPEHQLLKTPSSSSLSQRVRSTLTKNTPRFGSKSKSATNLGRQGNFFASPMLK

[7] = target: T3, Heat shock factor protein 1 (Mus musculus, UniProt P38532); experiment: enhancement of HSF1-driven luciferase signal – cell-based, NIH3T3, luminescence, dose retest, confirmation (AID 435004); type: functional;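 note: stress induced by proteasome inhibitor MG132 added 30 min after compound; luciferase reporter driven by HSF1 response element in NIH3T3 cells; actives raise luminescence as potentiators of the MG132 stress response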
T3 sequence (P38532 whole entry): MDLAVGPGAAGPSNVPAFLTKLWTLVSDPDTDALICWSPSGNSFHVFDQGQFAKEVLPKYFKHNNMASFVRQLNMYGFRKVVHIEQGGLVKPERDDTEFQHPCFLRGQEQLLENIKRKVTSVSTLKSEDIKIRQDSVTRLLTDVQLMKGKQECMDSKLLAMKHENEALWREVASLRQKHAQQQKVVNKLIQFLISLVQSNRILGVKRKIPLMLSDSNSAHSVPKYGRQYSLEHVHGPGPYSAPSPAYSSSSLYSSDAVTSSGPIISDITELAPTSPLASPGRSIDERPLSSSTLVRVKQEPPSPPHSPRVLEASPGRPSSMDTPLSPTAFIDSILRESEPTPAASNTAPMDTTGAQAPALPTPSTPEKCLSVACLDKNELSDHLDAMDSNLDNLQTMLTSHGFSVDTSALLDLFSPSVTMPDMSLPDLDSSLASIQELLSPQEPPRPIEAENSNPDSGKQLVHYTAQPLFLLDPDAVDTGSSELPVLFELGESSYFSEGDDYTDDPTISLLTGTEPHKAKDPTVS

[8] = target: T4, Replicative DNA helicase DnaB (Mycobacterium tuberculosis, UniProt P9WMR3); experiment: DnaB intein splicing inhibitors, dose response, biochemical, cell-free fluorescence (AID 449749); type: functional
T4 sequence (P9WMR3 whole entry): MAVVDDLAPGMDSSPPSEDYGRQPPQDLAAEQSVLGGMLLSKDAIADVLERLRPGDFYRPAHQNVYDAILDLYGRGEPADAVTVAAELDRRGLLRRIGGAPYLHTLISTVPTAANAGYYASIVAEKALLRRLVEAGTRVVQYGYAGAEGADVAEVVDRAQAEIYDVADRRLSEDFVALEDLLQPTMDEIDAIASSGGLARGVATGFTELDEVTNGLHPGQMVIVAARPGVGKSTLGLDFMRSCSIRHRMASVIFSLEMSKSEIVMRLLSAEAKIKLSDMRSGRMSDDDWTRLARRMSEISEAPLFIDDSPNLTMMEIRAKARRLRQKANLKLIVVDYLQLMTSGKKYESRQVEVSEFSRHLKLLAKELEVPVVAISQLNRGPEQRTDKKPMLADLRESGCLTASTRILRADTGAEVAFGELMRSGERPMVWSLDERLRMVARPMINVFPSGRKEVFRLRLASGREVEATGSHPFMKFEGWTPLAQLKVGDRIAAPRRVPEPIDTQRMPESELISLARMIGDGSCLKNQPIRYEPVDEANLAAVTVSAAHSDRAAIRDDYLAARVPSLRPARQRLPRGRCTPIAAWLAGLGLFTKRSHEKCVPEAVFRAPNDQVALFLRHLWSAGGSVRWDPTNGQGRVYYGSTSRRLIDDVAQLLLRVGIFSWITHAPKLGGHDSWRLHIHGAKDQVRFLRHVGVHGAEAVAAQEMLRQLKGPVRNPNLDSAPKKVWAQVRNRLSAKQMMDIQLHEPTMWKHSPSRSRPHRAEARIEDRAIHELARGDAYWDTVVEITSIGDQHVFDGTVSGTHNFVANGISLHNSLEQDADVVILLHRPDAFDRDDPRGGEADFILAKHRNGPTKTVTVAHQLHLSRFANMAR

Protein RecA = target: T5, Protein RecA (Mycobacterium tuberculosis, UniProt P9WHJ3); experiment: Fluorescence Cell-Free Homogeneous Dose Retest to Identify Inhibitors of RecA-Intein Splicing Activity. [Related pubchem assays (depositor defined):AID2097, AID2223, AID489010, AID492950]; type: functional
T5 sequence (P9WHJ3 whole entry): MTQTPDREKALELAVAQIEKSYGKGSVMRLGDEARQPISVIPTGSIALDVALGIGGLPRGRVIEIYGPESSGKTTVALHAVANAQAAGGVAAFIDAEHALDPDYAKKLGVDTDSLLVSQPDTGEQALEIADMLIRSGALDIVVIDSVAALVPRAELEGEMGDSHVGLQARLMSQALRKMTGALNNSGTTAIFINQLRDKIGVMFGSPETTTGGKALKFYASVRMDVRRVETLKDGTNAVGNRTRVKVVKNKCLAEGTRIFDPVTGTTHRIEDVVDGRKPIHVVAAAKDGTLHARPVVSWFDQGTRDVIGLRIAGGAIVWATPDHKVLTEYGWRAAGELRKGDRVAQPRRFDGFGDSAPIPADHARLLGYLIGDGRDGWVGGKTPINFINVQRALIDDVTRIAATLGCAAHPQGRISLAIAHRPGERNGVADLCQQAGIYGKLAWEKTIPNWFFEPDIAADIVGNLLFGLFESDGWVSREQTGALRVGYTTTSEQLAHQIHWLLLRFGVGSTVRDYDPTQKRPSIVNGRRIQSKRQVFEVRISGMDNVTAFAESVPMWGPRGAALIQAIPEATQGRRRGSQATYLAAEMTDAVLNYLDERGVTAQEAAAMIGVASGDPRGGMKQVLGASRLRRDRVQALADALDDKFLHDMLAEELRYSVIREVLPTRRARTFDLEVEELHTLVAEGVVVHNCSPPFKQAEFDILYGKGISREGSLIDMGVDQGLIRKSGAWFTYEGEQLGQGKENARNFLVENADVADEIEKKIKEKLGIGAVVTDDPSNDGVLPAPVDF

With Oc1nc(SCc2ccccc2Cl)nc(-c2ccc(Cl)cc2)n1 the IC50 [1] was 4.51 µM (not active).

With CC1CCN([S+]([O-])C23CC4CC(CC(C4)C2)C3)CC1 (stereo not given) the IC50 [1] was > 50 µM (not active).

In the case of CCCCCCCCCCOC(=O)C[N+](C)(C)C/C=C(/C)Cl, the AC50 (INS1) is reported as 13.3 µM (active).

In the case of Cc1ccc(C(=O)c2cc([N+](=O)[O-])ccc2N2CCN(C)CC2)cc1, the EC50 (BJ [2]) is reported as 12.5 µM (active), the EC50 (BJ [3]) is reported as 21.1 µM (inconclusive) and the EC50 (BJ [4]) is reported as 13.5 µM (inconclusive). For the same compound, the EC50 [5] was 15.8 µM (inconclusive).

With COc1cc(CN(C)CCc2ccccn2)cc(OC)c1OC the IC50 [6] was 101 µM (active).

For Cn1nnnc1SC(C(=O)Nc1cccc(C(F)(F)F)c1)c1ccccc1 (stereo not given), the IC50 [1] was 16.4 µM (active).

In the case of Cc1[nH]c2ccccc2c1CCN(Cc1cccnc1)C(S)=Nc1ccc(F)cc1, the IC50 [1] is reported as > 50 µM (not active).

In the case of ClC(Cl)(Cl)c1nc2ccccc2n2nncc12, the EC50 (BJ [2]) is reported as 6.96 µM (inconclusive), the EC50 (BJ [3]) is reported as 13.7 µM (active) and the EC50 (BJ [4]) is reported as 18.7 µM (active). For the same compound, the EC50 [5] was 13.1 µM (active), the EC50 [7] was 5.46 µM (active) and the AC50 [8] was 39.3 µM (active). For the same compound, the EC50 (Protein RecA) was 6.03 µM (active).

In the case of N#CC(c1ccncc1)(c1ncc(C(F)(F)F)cc1Cl)N1CCOCC1 (stereo not given), the IC50 [1] is reported as 19.2 µM (not active).

For OC(COc1ccccc1)Cn1c2ccccc2c2ccccc21 (stereo not given), the IC50 [1] was 7.48 µM (not active).

For COc1ccc(NC(=O)CN2CCN(c3nc(-c4ccc(F)cc4)cs3)CC2)c(OC)c1, the IC50 [1] was 5.73 µM (not active).
